From paper PMC12837263, “β,β-Dimethylacrylalkannin Restores Colistin Efficacy Against mcr- and TCS-Mediated Resistant Gram-Negative Bacteria via Membrane Disturbance” (Antibiotics, 2025)

Assays:
Cytotoxicity (CCK-8) = format: cell-based; conditions: human, HK-2 cells and HepG2 cells; HK-2 and HepG2, 24 h; selection criterion
Description: Toxicity assessment was performed by using sheep blood cells, human renal proximal tubular epithelial HK-2, and human hepatocarcinoma HepG2. Briefly, 8% erythrocyte suspensions were incubated with the test compounds (0–250 µM) for 1 h at 37 °C. After centrifugation, supernatants were transferred to a 96-well plate, and absorbance was measured at 570 nm.
The HepG2 and HK-2 cells (10^4 cells/well) were cultured in DMEM medium containing 10% fetal bovine serum (FBS) and then placed in a 5% CO2 incubator for 24 h. The culture medium was replaced with fresh DMEM medium containing the compounds (0–250 µM), followed by a further 24 h incubation. Subsequently, 10 µL of CCK-8 was added and incubated for 1 h, and OD450nm values were measured.Hemolysis% = [OD570nm(drug) − OD570nm(blank)]/[OD570nm(TritonX−100) − OD570nm(blank)] × 100%Cell viability% = [OD450nm(drug) − OD450nm(blank)]/[OD450nm(negative) − OD450nm(blank)] × 100%

S. aureus ATCC 29213 = assay: Effect of membrane components on antibacterial activity; format: cell-based
Description: The effects of membrane components on the antibacterial activity of β,β-Dim were evaluated using the checkerboard method by exogenous addition of phosphatidylethanolamine (PE), phosphatidylglycerol (PG), and cardiolipin (CL). The same procedure was followed with pre-addition of the respective components to CAMHB to explore their impact on the β,β-Dim–colistin combination in E. coli.

K. pneumoniae 667 = assay: Murine systemic (abdominal) infection model; format: in vivo; conditions: mice
Description: Mice were randomly assigned to five groups (n = 10) and infected intraperitoneally with K. pneumoniae 667 (8 × 10^6 CFUs). One hour post-infection, treatments were administered intraperitoneally: PBS, β,β-Dim (2 mg/kg), colistin (0.2 mg/kg), or β,β-Dim combined with colistin (2 + 0.2 mg/kg). Survival was continuously monitored. Upon death, the heart, liver, spleen, lungs, and kidney were immediately collected. At five days post-infection, surviving mice were euthanized, and the same organs were harvested. Half of each organ was weighed, homogenized, diluted, and plated on LA plates for bacterial colony enumeration. The remaining tissue samples were used for histopathological analysis.

[1] = system: E. coli BW25113, E. coli BW25113-mcr-1, E. coli BW25113-pmrBR93P; assay: Intracellular colistin content (HPLC-MS/MS); format: cell-based; conditions: colistin 0.5 × MIC with β,β-Dim at the highest tested concentration; 30 min
Description: Overnight cultures E. coli BW25113, E. coli BW25113-mcr-1, and E. coli 1 BW25113-pmrBR93P were diluted to 10^8 CFU/mL and then co-incubated with colistin (0.5 × MIC) in the presence of β,β-Dim (0–4 μg/mL) for 30 min at 37 °C. The cultures were centrifuged and resuspended in 30% methanol. Bacteria were disrupted by sonication and centrifugation, supernatants were diluted in 20% acetonitrile, and intracellular colistin was quantified via HPLC-MS/MS (TQ-XS, Waters, Milford, MA, USA). Analyses were performed on a CORTECS Shield RP C18 column (Waters, Milford, MA, USA) at 40 °C, with a flow rate of 0.4 mL/min and an injection volume of 5 μL. The mobile phases consisted of solvent A (0.5% formic acid and acetonitrile in water) and solvent B (0.5% formic acid in water). Colistin was detected in positive ESI mode with ion transitions […] and m/z 386.0 > 101.0. […] Mobile phases included solvent A (acetonitrile) and solvent B (water). β,β-Dim was detected in the negative electrospray ionization (ESI) mode with ion transitions m/z 369.1 > 269.0 and m/z 369.1 > 241.0.

Molecule | IC50 at 24 h (Cytotoxicity (CCK-8)) | antibacterial activity with exogenous PE, PG, and CL (S. aureus ATCC 29213) | increase of MIC by CL (S. aureus ATCC 29213; CL 40 μM) | survival rate (K. pneumoniae 667; day 5 post-infection, single i.p. β,β-Dim 2 mg/kg, colistin 0.2 mg/kg) | histopathological analysis (tissue damage) (K. pneumoniae 667; heart, liver, spleen, lung, kidney) | intracellular colistin levels [1]
CC(C)=CC[C@H](OC(=O)C=C(C)C)C1=CC(=O)c2c(O)ccc(O)c2C1=O [β,β-Dim, β,β-dimethylacrylalkannin] | > 10 µM | attenuated the antibacterial activity | 4 fold | – | – | –
colistin | – | – | – | 20% | partially alleviated these lesions | exceeding 0.6 µg per 10^8 CFUs
